According to ChEMBL document CHEMBL2429821, “A Casein kinase 1/Checkpoint kinase 1 pyrazolo-pyridine protein kinase inhibitor as novel activator of the p53 pathway” (Bioorg Med Chem Lett, 2013):
pIC50: −log10 of the molar value. Blank lines part the entries; values can stand above or below the molecule they belong to. Calls of active or inactive are those of the source. The calls are words filed in the database; no cut-off is given here.

Tests used:
A-375 [1] = assay: Cytotoxicity against human A375 cells assessed as reduction in cell number at 40 uM after 24 hrs by light microscopic analysis relative to control; type: functional, cell-based
[2] = molecular target: T1, Casein kinase I/MDM2 (Homo sapiens) (UniProt Q00987+P48729); assay: Inhibition of CK1-MDM2 complex in human A375 cells assessed as increase in p21 protein level at 5 to 40 uM compound transfected into cells using attractene carrier after 48 hrs by immunoblotting analysis; type: cell-based; details: A-375
T1 sequence (P48729 whole entry, looked up): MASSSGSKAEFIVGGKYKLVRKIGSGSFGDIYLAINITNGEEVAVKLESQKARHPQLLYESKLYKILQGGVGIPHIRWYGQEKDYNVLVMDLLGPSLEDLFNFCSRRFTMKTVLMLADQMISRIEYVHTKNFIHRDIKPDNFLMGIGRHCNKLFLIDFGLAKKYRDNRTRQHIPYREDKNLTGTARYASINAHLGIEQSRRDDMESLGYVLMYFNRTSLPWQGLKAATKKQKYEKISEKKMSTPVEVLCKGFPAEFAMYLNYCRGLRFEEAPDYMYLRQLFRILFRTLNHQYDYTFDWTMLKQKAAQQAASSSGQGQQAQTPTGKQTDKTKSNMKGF
T1 sequence (Q00987 whole entry, looked up): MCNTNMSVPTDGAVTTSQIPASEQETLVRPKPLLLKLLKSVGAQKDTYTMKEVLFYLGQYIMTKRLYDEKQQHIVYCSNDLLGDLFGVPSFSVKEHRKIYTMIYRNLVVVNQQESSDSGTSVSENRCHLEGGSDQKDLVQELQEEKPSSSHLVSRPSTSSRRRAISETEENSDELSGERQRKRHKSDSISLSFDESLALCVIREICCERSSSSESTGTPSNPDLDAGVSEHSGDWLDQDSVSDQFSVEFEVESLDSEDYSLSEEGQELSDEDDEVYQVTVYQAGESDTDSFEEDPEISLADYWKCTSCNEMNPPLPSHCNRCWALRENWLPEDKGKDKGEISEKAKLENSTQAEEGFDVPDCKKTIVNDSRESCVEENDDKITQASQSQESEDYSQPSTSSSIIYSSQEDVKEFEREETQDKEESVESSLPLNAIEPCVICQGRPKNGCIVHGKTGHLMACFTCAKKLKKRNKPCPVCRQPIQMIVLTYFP

[3] = molecular target: T1, Casein kinase I/MDM2 (Homo sapiens); assay: Inhibition of CK1-MDM2 complex in human A375 cells assessed as increase in p53 protein level at 5 to 40 uM compound transfected into cells using attractene carrier after 48 hrs by immunoblotting analysis; type: cell-based; details: A-375
[4] = molecular target: T1, Casein kinase I/MDM2 (Homo sapiens); assay: Inhibition of CK1-MDM2 complex in human A375 cells assessed as decrease in E2F1 protein level after 48 hrs by immunoblotting analysis; type: cell-based; details: A-375
[5] = molecular target: T1, Casein kinase I/MDM2 (Homo sapiens); assay: Inhibition of CK1-MDM2 complex in human A375 cells assessed as effect on p21 protein level at 0.2 to 80 uM after 48 hrs by immunoblotting analysis; type: cell-based; details: A-375
[6] = molecular target: T1, Casein kinase I/MDM2 (Homo sapiens); assay: Inhibition of CK1-MDM2 complex in human A375 cells assessed as effect on MDM2 protein level at 0.2 to 80 uM after 48 hrs by immunoblotting analysis; type: cell-based; details: A-375
[7] = molecular target: T1, Casein kinase I/MDM2 (Homo sapiens); assay: Inhibition of CK1-MDM2 complex in human A375 cells assessed as increase in […] protein level at 0.2 to 40 uM after 24 hrs by immunoblotting analysis; type: cell-based; details: A-375
[8] = molecular target: T1, Casein kinase I/MDM2 (Homo sapiens); assay: Inhibition of CK1-MDM2 complex in human A375 cells assessed as increase in p53 protein level at 0.2 to 40 uM after 24 hrs by immunoblotting analysis; type: cell-based; details: A-375
[9] = molecular target: T2, Mitogen-activated protein kinase 14 (Homo sapiens, UniProt Q16539); assay: Inhibition of human p38alpha MAPK assessed as residual activity at 1 uM relative to control
T2 sequence (Q16539 whole entry): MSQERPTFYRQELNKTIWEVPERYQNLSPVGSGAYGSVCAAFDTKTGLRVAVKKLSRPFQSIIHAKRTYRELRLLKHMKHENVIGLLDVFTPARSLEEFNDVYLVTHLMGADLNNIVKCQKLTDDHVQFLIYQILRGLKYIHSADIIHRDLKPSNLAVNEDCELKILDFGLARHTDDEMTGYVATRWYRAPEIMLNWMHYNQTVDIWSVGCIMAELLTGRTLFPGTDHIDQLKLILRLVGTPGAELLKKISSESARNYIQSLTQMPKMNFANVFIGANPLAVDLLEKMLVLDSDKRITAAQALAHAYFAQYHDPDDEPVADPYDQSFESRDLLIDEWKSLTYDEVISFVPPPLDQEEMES

[10] = molecular target: T2, Mitogen-activated protein kinase 14; assay: Inhibition of human p38alpha MAPK assessed as residual activity at 10 uM relative to control
[11] = molecular target: T1, Casein kinase I/MDM2 (Homo sapiens); assay: Inhibition of CK1-MDM2 complex in human A375 cells assessed as increase in MDM2 protein level at 0.2 to 5 uM after 48 hrs by immunoblotting analysis; type: cell-based; details: A-375
[12] = molecular target: T1, Casein kinase I/MDM2 (Homo sapiens); assay: Inhibition of CK1-MDM2 complex in human A375 cells assessed as increase in p53 protein level at 0.2 to 5 uM after 48 hrs by immunoblotting analysis; type: cell-based; details: A-375
A-375 [13] = assay: Cell cycle arrest in human A375 cells assessed as accumulation at G2-M phase at 40 uM after 48 hrs by FACS flow cytometric analysis (reference value: 17.3%); type: functional
A-375 [14] = assay: Cell cycle arrest in human A375 cells assessed as accumulation at S phase at 40 uM after 48 hrs by FACS flow cytometric analysis (reference value: 25.1%); type: functional
A-375 [15] = assay: Cell cycle arrest in human A375 cells assessed as accumulation at G0-G1 phase at 40 uM after 48 hrs by FACS flow cytometric analysis (reference value: 55.4%); type: functional
A-375 [16] = assay: Cell cycle arrest in human A375 cells assessed as accumulation at sub-G1 phase at 40 uM after 48 hrs by FACS flow cytometric analysis (reference value: 2.17%); type: functional
A-375 [17] = assay: Cell cycle arrest in human A375 cells assessed as accumulation at S phase at 20 uM after 48 hrs by FACS flow cytometric analysis (reference value: 25.1%); type: functional
A-375 [18] = assay: Cell cycle arrest in human A375 cells assessed as accumulation at G2-M phase at 20 uM after 48 hrs by FACS flow cytometric analysis (reference value: 17.3%); type: functional
A-375 [19] = assay: Cell cycle arrest in human A375 cells assessed as accumulation at G0-G1 phase at 20 uM after 48 hrs by FACS flow cytometric analysis (reference value: 55.4%); type: functional
A-375 [20] = assay: Cell cycle arrest in human A375 cells assessed as accumulation at sub-G1 phase at 20 uM after 48 hrs by FACS flow cytometric analysis (reference value: 2.17%); type: functional
A-375 [21] = assay: Cell cycle arrest in human A375 cells assessed as accumulation at sub-G1 phase at 10 uM after 48 hrs by FACS flow cytometric analysis (reference value: 2.17%); type: functional
A-375 [22] = assay: Cell cycle arrest in human A375 cells assessed as accumulation at G2-M phase at 5 uM after 48 hrs by FACS flow cytometric analysis (reference value: 17.3%); type: functional
A-375 [23] = assay: Cell cycle arrest in human A375 cells assessed as accumulation at S phase at 5 uM after 48 hrs by FACS flow cytometric analysis (reference value: 25.1%); type: functional
A-375 [24] = assay: Cell cycle arrest in human A375 cells assessed as accumulation at G0-G1 phase at 5 uM after 48 hrs by FACS flow cytometric analysis (reference value: 55.4%); type: functional
A-375 [25] = assay: Cell cycle arrest in human A375 cells assessed as accumulation at S phase at 1 uM after 48 hrs by FACS flow cytometric analysis (reference value: 25.1%); type: functional
A-375 [26] = assay: Cell cycle arrest in human A375 cells assessed as accumulation at G0-G1 phase at 1 uM after 48 hrs by FACS flow cytometric analysis (reference value: 55.4%); type: functional
A-375 [27] = assay: Cell cycle arrest in human A375 cells assessed as accumulation at sub-G1 phase at 1 uM after 48 hrs by FACS flow cytometric analysis (reference value: 2.17%); type: functional
HCT-116 [28] = assay: Cytotoxicity against human HCT116 cells expressing p53 assessed as cell viability at 1 to 32 uM after 24 hrs by MTT assay; type: functional, cell-based
HCT-116 [29] = assay: Cytotoxicity against p53-deficient human HCT116 cells assessed as cell viability at 1 to 32 uM after 24 hrs by MTT assay; type: functional, cell-based
A-375 [30] = assay: Cytotoxicity against human A375 cells assessed as cell viability after 24 hrs by MTT assay; type: functional, cell-based; details: A-375, 24 h
[31] = molecular target: Mitogen-activated protein kinase 15 (Homo sapiens, UniProt Q8TD08); assay: Inhibition of human ERK8 in presence of 5 uM ATP
Sequence of Mitogen-activated protein kinase 15 (Q8TD08 whole entry): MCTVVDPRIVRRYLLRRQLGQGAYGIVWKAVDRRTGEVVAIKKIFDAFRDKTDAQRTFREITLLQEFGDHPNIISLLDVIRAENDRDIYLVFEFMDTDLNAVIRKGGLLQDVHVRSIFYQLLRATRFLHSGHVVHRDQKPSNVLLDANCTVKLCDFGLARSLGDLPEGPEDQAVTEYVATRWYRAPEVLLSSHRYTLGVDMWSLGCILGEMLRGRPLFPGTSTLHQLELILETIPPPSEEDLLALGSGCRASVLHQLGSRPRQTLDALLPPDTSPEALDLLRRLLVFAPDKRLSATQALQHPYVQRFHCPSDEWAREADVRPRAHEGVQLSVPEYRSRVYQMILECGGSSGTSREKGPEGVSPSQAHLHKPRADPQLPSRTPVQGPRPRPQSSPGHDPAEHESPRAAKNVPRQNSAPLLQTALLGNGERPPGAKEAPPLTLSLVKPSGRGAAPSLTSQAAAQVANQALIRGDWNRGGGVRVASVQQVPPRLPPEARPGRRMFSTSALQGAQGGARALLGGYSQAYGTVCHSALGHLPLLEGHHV

[32] = molecular target: Fibroblast growth factor receptor 1 (Homo sapiens, UniProt P11362); assay: Inhibition of human FGFR1 in presence of 20 uM ATP
Sequence of Fibroblast growth factor receptor 1 (P11362 whole entry): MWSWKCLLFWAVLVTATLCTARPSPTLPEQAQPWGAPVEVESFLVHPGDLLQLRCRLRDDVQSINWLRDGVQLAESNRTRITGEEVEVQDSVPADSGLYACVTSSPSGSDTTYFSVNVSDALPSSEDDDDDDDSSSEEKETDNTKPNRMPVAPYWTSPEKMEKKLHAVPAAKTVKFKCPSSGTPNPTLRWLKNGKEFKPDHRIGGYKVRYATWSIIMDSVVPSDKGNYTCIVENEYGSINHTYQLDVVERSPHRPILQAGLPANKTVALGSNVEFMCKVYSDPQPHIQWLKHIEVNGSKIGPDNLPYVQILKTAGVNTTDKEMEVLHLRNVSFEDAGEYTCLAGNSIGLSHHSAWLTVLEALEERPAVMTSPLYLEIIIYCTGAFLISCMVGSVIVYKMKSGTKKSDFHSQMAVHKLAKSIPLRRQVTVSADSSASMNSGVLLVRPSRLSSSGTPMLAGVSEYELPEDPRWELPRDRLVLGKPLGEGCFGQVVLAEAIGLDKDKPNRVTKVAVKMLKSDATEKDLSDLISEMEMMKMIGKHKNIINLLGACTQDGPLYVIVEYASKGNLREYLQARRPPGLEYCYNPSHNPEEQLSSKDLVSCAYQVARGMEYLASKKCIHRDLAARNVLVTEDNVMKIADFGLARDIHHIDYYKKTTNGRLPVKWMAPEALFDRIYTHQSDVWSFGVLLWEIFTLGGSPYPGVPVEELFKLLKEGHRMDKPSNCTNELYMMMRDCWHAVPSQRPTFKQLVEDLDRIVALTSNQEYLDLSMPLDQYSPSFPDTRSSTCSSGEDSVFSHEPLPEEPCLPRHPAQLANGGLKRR

[33] = molecular target: Serine/threonine-protein kinase Nek2 (Homo sapiens, UniProt P51955); assay: Inhibition of human NEK2alpha in presence of 50 uM ATP
Sequence of Serine/threonine-protein kinase Nek2 (P51955 whole entry): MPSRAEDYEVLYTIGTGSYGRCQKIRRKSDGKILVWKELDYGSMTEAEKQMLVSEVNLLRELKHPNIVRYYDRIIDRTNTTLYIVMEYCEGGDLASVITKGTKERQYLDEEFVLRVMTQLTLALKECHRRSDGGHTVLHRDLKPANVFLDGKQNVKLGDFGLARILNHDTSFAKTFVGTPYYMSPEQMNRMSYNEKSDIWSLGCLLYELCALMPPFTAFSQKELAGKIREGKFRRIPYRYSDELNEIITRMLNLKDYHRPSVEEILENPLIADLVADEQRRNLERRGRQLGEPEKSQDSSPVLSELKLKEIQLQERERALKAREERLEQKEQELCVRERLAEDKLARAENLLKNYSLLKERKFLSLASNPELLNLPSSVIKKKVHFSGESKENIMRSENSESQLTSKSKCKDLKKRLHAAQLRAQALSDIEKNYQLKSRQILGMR

inhibition [2]: inactive | inhibition [3]: inactive | inhibition [4]: Dose-dependent effect | inhibition [5]: inactive | inhibition [6]: inactive
SMILES: CC(=O)Nc1nccc(-c2c(-c3ccccc3)noc2C)n1
Activity (A-375 [1]): inactive

inhibition [7]: Active | inhibition [8]: Active | Activity [9]: 84% | Activity [10]: 91%
SMILES: CCCC(=O)Nc1n[nH]c2ncc(-c3cccnc3)cc12

inhibition [11]: Active | inhibition [12]: Active | pIC50 [32]: 5.22 | pIC50 [33]: 5.70
SMILES: CC(=O)Nc1cccc(-c2cnc3[nH]nc(C)c3c2)c1
Activity (A-375 [13]): 8.54% | Activity (A-375 [14]): 14% | Activity (A-375 [15]): 16.9% | Activity (A-375 [16]): 56.7% | Activity (A-375 [17]): 14.2% | Activity (A-375 [18]): 9.65% | Activity (A-375 [19]): 25.1% | Activity (A-375 [20]): 50.5% | Activity (A-375 [21]): 34.3% | Activity (A-375 [22]): 15.9% | Activity (A-375 [23]): 13.7% | Activity (A-375 [24]): 50.8% | Activity (A-375 [25]): 21.6% | Activity (A-375 [26]): 57.7% | Activity (A-375 [27]): 2.37% | Activity (HCT-116 [28]): Active | Activity (HCT-116 [29]): Active | pIC50 (A-375 [30]): 5.10 | pIC50 [31]: 6.40
